Assay results taken from ChEMBL document CHEMBL5209568, “Membrane potential based assay for SLC5A11 using HEK-293 SLC5A11 OE cells” (2022).

Biological target: T1, Sodium/myo-inositol cotransporter 2 (Homo sapiens, UniProt Q8WWX8)
T1 sequence (Q8WWX8 whole entry): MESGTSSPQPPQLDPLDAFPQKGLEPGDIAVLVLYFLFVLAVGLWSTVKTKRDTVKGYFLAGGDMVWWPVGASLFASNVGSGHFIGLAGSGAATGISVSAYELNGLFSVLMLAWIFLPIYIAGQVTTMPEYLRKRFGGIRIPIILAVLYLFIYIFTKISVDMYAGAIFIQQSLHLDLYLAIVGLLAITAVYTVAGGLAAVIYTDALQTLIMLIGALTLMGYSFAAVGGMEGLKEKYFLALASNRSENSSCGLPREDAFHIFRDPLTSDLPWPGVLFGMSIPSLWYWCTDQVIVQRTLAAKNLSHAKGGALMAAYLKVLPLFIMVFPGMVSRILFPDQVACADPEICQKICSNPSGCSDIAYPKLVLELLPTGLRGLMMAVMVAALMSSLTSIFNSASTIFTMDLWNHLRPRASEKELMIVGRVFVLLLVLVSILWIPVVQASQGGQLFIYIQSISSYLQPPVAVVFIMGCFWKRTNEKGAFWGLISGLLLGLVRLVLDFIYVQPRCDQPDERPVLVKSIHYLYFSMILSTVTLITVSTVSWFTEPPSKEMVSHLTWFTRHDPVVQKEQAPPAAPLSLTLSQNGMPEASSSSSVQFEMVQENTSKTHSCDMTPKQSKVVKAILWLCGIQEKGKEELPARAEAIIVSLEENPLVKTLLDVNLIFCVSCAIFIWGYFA
Experiment: Substrate uptake by the Sodium/myo-inositol cotransporter 2 (SMIT2, SLC5A11) as assessed by the fluorescent FLIPR membrane potential dye in HEK-293 JumpIN-SLC5A11 cells (PubChem AID: 1794826)
Format: functional, cell-based, HEK293

## O[C@H]1[C@@H](O)[C@@H](O)[C@@H](O)[C@@H](O)[C@@H]1O
  EC50: 104 µM
